Experimental findings from ChEMBL document CHEMBL4480413, “Cytotoxic Withanolides from the Roots of Indian Ginseng ( Withania somnifera)” (J Nat Prod, 2019) are described below.

pIC50: −log10 of the molar value.

What all share (format): functional, cell-based
Experiment [1] has as its system SK-OV-3. Kind of experiment: Cytotoxicity against human SKOV3 cells after 72 hrs by SRB assay. Conditions: for IC50: sk-ov-3; for pIC50: Homo sapiens, SK-OV-3, 72 h, read-out: IC50; call rule not given here. In general terms: The SRB assay estimates cell density from bound dye.
Experiment [2] deals with A549. Kind of experiment: Cytotoxicity against human A549 cells after 72 hrs by SRB assay. Conditions: for IC50: a549; for pIC50: Homo sapiens, A549, 72 h, read-out: IC50.
Experiment [3] concerns HCT-15. Kind of experiment: Cytotoxicity against human HCT15 cells after 72 hrs by SRB assay. Conditions: for IC50: hct-15; for pIC50: Homo sapiens, HCT-15, 72 h, read-out: IC50.
Experiment [4] relates to SK-MEL-2. Kind of experiment: Cytotoxicity against human SK-MEL-2 cells after 72 hrs by SRB assay. Conditions: for IC50: sk-mel-2; for pIC50: Homo sapiens, SK-MEL-2, 72 h, read-out: IC50.

For the molecule `CC1=C(CO)C(=O)O[C@@H](/C(C)=C2\[C@H](O)C[C@H]3[C@@H]4[C@@H]5O[C@@H]5[C@@]5(O)CC=CC(=O)[C@]5(C)[C@H]4CC[C@]23C)C1`, the IC50 entry in experiment [1], in experiment [2], in experiment [3] and in experiment [4] was “Not Active” throughout.
With `CC1=C(CO)C(=O)O[C@@H]([C@@H](C)[C@@]2(O)CC[C@H]3[C@@H]4[C@@H]5O[C@@H]5[C@@]5(O)CC=CC(=O)[C@]5(C)[C@H]4CC[C@@]32C)C1`, the IC50 result in experiment [1], in experiment [2], in experiment [3] and in experiment [4] was “Not Active” in each case.
With `CC1=C(C)C(=O)O[C@@H]([C@](C)(O)[C@@]2(O)CC[C@H]3[C@@H]4[C@@H]5O[C@@H]5[C@@]5(O)CC=CC(=O)[C@]5(C)[C@H]4CC[C@@]32C)C1`, the IC50 entry in experiment [1], in experiment [2], in experiment [3] and in experiment [4] was “Not Active” throughout.
Regarding `CC(=O)O[C@@H]1C[C@H]2[C@@H]3[C@@H]4O[C@@H]4[C@@]4(O)CC=CC(=O)[C@]4(C)[C@H]3CC[C@]2(C)/C1=C(\C)[C@H]1CC(C)=C(CO)C(=O)O1`, the pIC50 in experiment [1] is less than 5.00; in experiment [2], less than 5.00; in experiment [3] it was 5.12; in experiment [4], 5.00.
On to `CC1=C(C)[C@H](O)[C@H]([C@](C)(O)[C@H]2CC[C@H]3[C@@H]4[C@@H]5O[C@@H]5[C@@]5(O)CC=CC(=O)[C@]5(C)[C@H]4CC[C@]23C)OC1=O`, for which the negative logarithm of the IC50 (pIC50) in experiment [1] was less than 5.00; in experiment [2], less than 5.00; in experiment [3], 5.01; in experiment [4], 5.04.
For the molecule `C[C@H]([C@H]1C[C@H](C)[C@@H](C)C(=O)O1)[C@@]1(O)CC[C@H]2[C@@H]3[C@@H]4O[C@@H]4[C@@]4(O)CC=CC(=O)[C@]4(C)[C@H]3CC[C@@]21C`, the IC50 entry in experiment [1], in experiment [2], in experiment [3] and in experiment [4] was “Not Active” each time.
For the molecule `C[C@H]1C[C@H]([C@](C)(O)[C@H]2CC[C@H]3[C@@H]4[C@H](O)C=C5CC=CC(=O)[C@]5(C)[C@H]4CC[C@]23C)OC(=O)[C@@H]1C`, the negative logarithm of the IC50 (pIC50) in experiment [1] was 5.06; in experiment [2], less than 5.00; in experiment [3] it was 5.24; in experiment [4], 5.23.
With `C[C@H]1C[C@H]([C@](C)(O)[C@H]2CC[C@H]3[C@@H]4[C@@H]5O[C@@H]5[C@@]5(O)CC=CC(=O)[C@]5(C)[C@H]4CC[C@]23C)OC(=O)[C@@H]1C`, the IC50 entry in experiment [1], in experiment [2], in experiment [3] and in experiment [4] was “Not Active” in each case.
`CC1=C(CO)C(=O)O[C@@H]([C@](C)(O)[C@H]2CC[C@H]3[C@@H]4[C@@H]5O[C@@H]5[C@@]5(O)CC=CC(=O)[C@]5(C)[C@H]4CC[C@]23C)C1`: the IC50 result in experiment [1], in experiment [2], in experiment [3] and in experiment [4] was “Not Active” in each case.
For `CC1=C(C)C(=O)O[C@@H]([C@](C)(O)[C@H]2CC[C@H]3[C@@H]4[C@H](O)C=C5CC=CC(=O)[C@]5(C)[C@H]4CC[C@]23C)C1`, the pIC50 in experiment [1] was 5.10; in experiment [2], less than 5.00; in experiment [3], 5.29; in experiment [4], 5.47.
As to `CC1=C(C)C(=O)O[C@@H]([C@@H](C)[C@]2(O)CC[C@H]3[C@@H]4[C@@H]5O[C@@H]5[C@@]5(O)CC=CC(=O)[C@]5(C)[C@H]4CC[C@@]32C)C1`, the IC50 entry in experiment [1], in experiment [2], in experiment [3] and in experiment [4] was “Not Active” throughout.
Turning to `COc1cc([C@@H]2c3cc4c(cc3[C@@H](O[C@@H]3O[C@@H]5CO[C@@H](C)O[C@H]5[C@H](O)[C@H]3O)[C@H]3COC(=O)[C@H]23)OCO4)cc(OC)c1O` [ETOPOSIDE], the pIC50 in experiment [1] is 5.74; in experiment [2], 6.15; in experiment [3], 6.34; in experiment [4] it was 6.10.
For `CC1=C(C)C(=O)O[C@@H]([C@](C)(O)[C@H]2CC[C@H]3[C@@H]4[C@@H]5O[C@@H]5[C@@]5(O)CC=CC(=O)[C@]5(C)[C@H]4CC[C@]23C)C1` [WITHANOLIDE A], the IC50 entry in experiment [1], in experiment [2], in experiment [3] and in experiment [4] was “Not Active” throughout.
For `CC1=C(C)C(=O)O[C@@H]([C@@H](C)[C@@]2(O)CC[C@H]3[C@@H]4[C@@H]5O[C@@H]5[C@@]5(O)CC=CC(=O)[C@]5(C)[C@H]4CC[C@@]32C)C1` [WITHANONE], the negative-log IC50 (pIC50) was less than 5.00 in experiment [1], less than 5.00 in experiment [2], 5.23 in experiment [3] and 5.21 in experiment [4].

Broadly, the pIC50 is the IC50 on a negative log10 scale, so that one unit is a factor of ten.
